Experimental data: ChEMBL document CHEMBL1141370, “Biologically active triterpenoid saponins from Ardisia japonica” (J Nat Prod, 2007)

Assays:
Assay type in all cases: cell-based
A549 = experiment: Cytotoxicity against human A549 cell line by MTT assay
HL-60 = experiment: Cytotoxicity against human HL60 cell line by MTT assay
[1] = Cytotoxicity against human KATO3 cell line by MTT assay

Row | Compound | IC50 (A549) | IC50 (HL-60) | IC50 [1]
1 | CC1(C)[C@@H](O[C@@H]2OC[C@H](O[C@@H]3O[C@H](CO)[C@@H](O)[C@H](O[C@@H]4O[C@H](CO)[C@@H](O)[C@H](O)[C@H]4O)[C@H]3O[C@@H]3OC[C@@H](O)[C@H](O)[C@H]3O)[C@H](O)[C@H]2O[C@@H]2O[C@H](CO)[C@@H](O)[C@H](O)[C@H]2O)CC[C@]2(C)[C@H]3CC[C@]45OC[C@@]6(CC[C@](C)(CO)C[C@H]64)[C@H](O)C[C@@]5(C)[C@]3(C)CC[C@@H]12 [ARDISIANOSIDE F] | 36.2 µM | > 100 µM | 38.3 µM
2 | CC1(C)CC[C@]23CO[C@@]4(CC[C@@H]5[C@@]6(C)CC[C@H](O[C@@H]7OC[C@H](O[C@@H]8O[C@H](CO)[C@@H](O)[C@H](O[C@@H]9O[C@H](CO)[C@@H](O[C@@H]%10O[C@H](CO)[C@@H](O)[C@H](O)[C@H]%10O)[C@H](O[C@@H]%10O[C@H](CO)[C@@H](O)[C@H](O)[C@H]%10O)[C@H]9O)[C@H]8O[C@@H]8OC[C@@H](O)[C@H](O)[C@H]8O)[C@H](O)[C@H]7O[C@@H]7O[C@H](CO)[C@@H](O)[C@H](O)[C@H]7O)C(C)(C)[C@@H]6CC[C@@]5(C)[C@]4(C)C[C@H]2O)[C@@H]3C1 [ARDISIANOSIDES A] | 6 µM | 2.7 µM | 0.4 µM
3 | C[C@@H]1O[C@@H](O[C@H]2[C@H](O[C@H]3CO[C@@H](O[C@H]4CC[C@]5(C)[C@H]6CC[C@]78OC[C@@]9(CCC(C)(C)C[C@H]97)[C@H](O)C[C@@]8(C)[C@]6(C)CC[C@H]5C4(C)C)[C@H](O[C@@H]4O[C@H](CO)[C@@H](O)[C@H](O)[C@H]4O)[C@H]3O)O[C@H](CO)[C@@H](O)[C@@H]2O)[C@H](O)[C@H](O)[C@H]1O | 3.7 µM | 1.9 µM | 0.4 µM
4 | C[C@@H]1O[C@@H](O[C@H]2[C@H](O[C@H]3CO[C@@H](O[C@H]4CC[C@]5(C)[C@H]6CC=C7[C@@H]8C[C@@](C)(CO)CC[C@]8(CO)[C@H](O)C[C@@]7(C)[C@]6(C)CC[C@H]5C4(C)C)[C@H](O[C@@H]4O[C@H](CO)[C@@H](O)[C@H](O)[C@H]4O)[C@H]3O)O[C@H](CO)[C@@H](O)[C@@H]2O)[C@H](O)[C@H](O)[C@H]1O [ARDISIAMAMILLOSEDE C] | > 100 µM | > 100 µM | > 100 µM
5 | CC1(C)CC[C@]23CO[C@@]4(CC[C@@H]5[C@@]6(C)CC[C@H](O[C@@H]7OC[C@H](O[C@@H]8O[C@H](CO)[C@@H](O)[C@H](O[C@@H]9O[C@H](CO)[C@@H](O)[C@H](O[C@@H]%10O[C@H](CO)[C@@H](O)[C@H](O)[C@H]%10O)[C@H]9O)[C@H]8O[C@@H]8OC[C@@H](O)[C@H](O)[C@H]8O)[C@H](O)[C@H]7O[C@@H]7O[C@H](CO)[C@@H](O)[C@H](O)[C@H]7O)C(C)(C)[C@@H]6CC[C@@]5(C)[C@]4(C)C[C@H]2O)[C@@H]3C1 [ARDISIANOSIDE B] | 3.1 µM | 2.4 µM | 0.3 µM
6 | CC1(C)CC[C@]23C(=O)O[C@@]4(CC[C@@H]5[C@@]6(C)CC[C@H](O[C@@H]7OC[C@H](O[C@@H]8O[C@H](CO)[C@@H](O)[C@H](O[C@@H]9O[C@H](CO)[C@@H](O[C@@H]%10O[C@H](CO)[C@@H](O)[C@H](O)[C@H]%10O)[C@H](O[C@@H]%10O[C@H](CO)[C@@H](O)[C@H](O)[C@H]%10O)[C@H]9O)[C@H]8O[C@@H]8OC[C@@H](O)[C@H](O)[C@H]8O)[C@H](O)[C@H]7O[C@@H]7O[C@H](CO)[C@@H](O)[C@H](O)[C@H]7O)C(C)(C)[C@@H]6CC[C@@]5(C)[C@]4(C)C[C@H]2O)[C@@H]3C1 [ARDISIANOSIDE H] | 33.4 µM | 28.4 µM | 8.3 µM
7 | C[C@@H]1O[C@@H](O[C@H]2[C@H](O[C@H]3CO[C@@H](O[C@H]4CC[C@]5(C)[C@H]6CC[C@]78OC(=O)[C@@]9(CC[C@](C)(CO)C[C@H]97)[C@H](O)C[C@@]8(C)[C@]6(C)CC[C@H]5C4(C)C)[C@H](O[C@@H]4O[C@H](CO)[C@@H](O)[C@H](O)[C@H]4O)[C@H]3O)O[C@H](CO)[C@@H](O)[C@@H]2O)[C@H](O)[C@H](O)[C@H]1O [ARDISIANOSIDE I] | > 100 µM | > 100 µM | > 100 µM
